Patent publication US12258327B2, “5-membered heteroaryl-containing aminopyridine compounds as EGFR inhibitors” (YUHAN CORPORATION, priority 2021, dated 2025)
Like-named read-outs stand apart in the source and are kept apart here.

Legend:
EGFR del19/T790M/C797S = EGFR del19/T790M/C797S (Homo sapiens, UniProt P00533, C797S/DEL746-750/T790M); test: Biochemical EGFR kinase assay (Lance Ultra TR-FRET), triple mutant del19/T790M/C797S
Method in brief: (§1)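 Kinase activity is measured by TR-FRET phosphopeptide detection. Compounds span 0.003 μM to 10 μM; the 1 h reaction at room temperature is quenched with EDTA, then labelled antibody (2 nM) is incubated 60 min before reading.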

EGFR wildtype (WT) = EGFR wildtype (WT) (Homo sapiens, UniProt P00533); test: Biochemical EGFR kinase assay (Lance Ultra TR-FRET), wildtype
Method in brief: as §1

EGFR L858R/C797S = EGFR L858R/C797S (Homo sapiens, UniProt P00533, C797S/L858R); test: Biochemical EGFR kinase assay (Lance Ultra TR-FRET), double mutant L858R/C797S
Method in brief: as §1

EGFR del19/C797S = EGFR del19/C797S (Homo sapiens, UniProt P00533, C797S/DEL746-750); test: Biochemical EGFR kinase assay (Lance Ultra TR-FRET), double mutant del19/C797S
Method in brief: as §1

EGFR L858R/T790M/C797S = EGFR L858R/T790M/C797S (Homo sapiens, UniProt P00533, C797S/L858R/T790M); test: Biochemical EGFR kinase assay (Lance Ultra TR-FRET), triple mutant L858R/T790M/C797S
Method in brief: as §1

[1] = IC50 del19/T790M/C797S (nM) 100 μM ATP, 100 μM ATP
[2] = IC50 WT (nM) 100 μM ATP, 100 μM ATP
[3] = Km ATP, read-out: IC50 WT (nM) Km ATP
[4] = IC50 L858R/C797S (nM) 100 μM ATP, 100 μM ATP
[5] = Km ATP, read-out: IC50 L858R/C797S (nM) Km ATP
[6] = IC50 del19/C797S (nM) 100 μM ATP, 100 μM ATP
[7] = Km ATP, read-out: IC50 del19/C797S (nM) Km ATP
[8] = IC50 L858R/T790M/C797S (nM) 100 μM ATP, 100 μM ATP
[9] = Km ATP, read-out: IC50 L858R/T790M/C797S (nM) Km ATP
[10] = Km ATP, read-out: IC50 del19/T790M/C797S, Km ATP
[11] = Km ATP, read-out: IC50 WT, Km ATP
[12] = Km ATP, read-out: IC50 L858R/C797S, Km ATP
[13] = Km ATP, read-out: IC50 del19/C797S, Km ATP
[14] = Km ATP, read-out: IC50 L858R/T790M/C797S, Km ATP
[15] = IC50 del19/T790M/C797S, 100 μM ATP
[16] = IC50 L858R/T790M/C797S, 100 μM ATP
[17] = Km ATP, read-out: IC50 del19/T790M/C797S (nM) Km ATP

Sequence of EGFR L858R/T790M/C797S (P00533 25-1210 T790M/C797S/L858R): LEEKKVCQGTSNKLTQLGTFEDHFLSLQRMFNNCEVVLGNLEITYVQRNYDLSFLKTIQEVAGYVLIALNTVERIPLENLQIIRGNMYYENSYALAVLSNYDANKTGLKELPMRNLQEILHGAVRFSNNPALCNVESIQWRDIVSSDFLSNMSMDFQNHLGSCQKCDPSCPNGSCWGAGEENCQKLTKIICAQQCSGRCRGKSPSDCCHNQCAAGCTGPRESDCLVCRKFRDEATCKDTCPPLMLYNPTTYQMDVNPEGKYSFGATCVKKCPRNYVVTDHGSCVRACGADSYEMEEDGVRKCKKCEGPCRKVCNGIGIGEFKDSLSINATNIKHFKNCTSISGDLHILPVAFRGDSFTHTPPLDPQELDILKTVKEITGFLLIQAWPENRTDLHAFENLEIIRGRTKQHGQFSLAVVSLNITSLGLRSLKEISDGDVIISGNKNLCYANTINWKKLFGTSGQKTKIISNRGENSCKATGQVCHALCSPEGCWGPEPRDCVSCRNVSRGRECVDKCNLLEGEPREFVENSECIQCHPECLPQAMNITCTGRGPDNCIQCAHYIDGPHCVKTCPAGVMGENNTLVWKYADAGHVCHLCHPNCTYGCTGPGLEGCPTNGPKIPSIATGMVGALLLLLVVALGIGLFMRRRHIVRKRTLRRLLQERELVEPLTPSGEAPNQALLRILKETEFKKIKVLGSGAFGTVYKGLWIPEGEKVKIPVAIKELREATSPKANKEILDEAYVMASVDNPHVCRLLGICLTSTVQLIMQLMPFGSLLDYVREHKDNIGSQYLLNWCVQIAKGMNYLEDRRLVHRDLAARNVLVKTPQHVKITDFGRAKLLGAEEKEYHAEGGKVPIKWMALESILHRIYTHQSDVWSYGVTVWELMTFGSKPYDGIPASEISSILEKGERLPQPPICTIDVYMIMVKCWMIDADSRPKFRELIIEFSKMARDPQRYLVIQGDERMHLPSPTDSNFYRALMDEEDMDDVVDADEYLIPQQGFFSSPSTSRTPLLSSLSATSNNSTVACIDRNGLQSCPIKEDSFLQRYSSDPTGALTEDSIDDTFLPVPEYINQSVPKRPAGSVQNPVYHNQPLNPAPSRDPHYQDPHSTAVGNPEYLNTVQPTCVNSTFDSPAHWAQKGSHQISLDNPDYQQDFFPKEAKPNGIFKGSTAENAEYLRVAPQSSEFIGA
Sequence of EGFR wildtype (WT) (P00533 25-1210): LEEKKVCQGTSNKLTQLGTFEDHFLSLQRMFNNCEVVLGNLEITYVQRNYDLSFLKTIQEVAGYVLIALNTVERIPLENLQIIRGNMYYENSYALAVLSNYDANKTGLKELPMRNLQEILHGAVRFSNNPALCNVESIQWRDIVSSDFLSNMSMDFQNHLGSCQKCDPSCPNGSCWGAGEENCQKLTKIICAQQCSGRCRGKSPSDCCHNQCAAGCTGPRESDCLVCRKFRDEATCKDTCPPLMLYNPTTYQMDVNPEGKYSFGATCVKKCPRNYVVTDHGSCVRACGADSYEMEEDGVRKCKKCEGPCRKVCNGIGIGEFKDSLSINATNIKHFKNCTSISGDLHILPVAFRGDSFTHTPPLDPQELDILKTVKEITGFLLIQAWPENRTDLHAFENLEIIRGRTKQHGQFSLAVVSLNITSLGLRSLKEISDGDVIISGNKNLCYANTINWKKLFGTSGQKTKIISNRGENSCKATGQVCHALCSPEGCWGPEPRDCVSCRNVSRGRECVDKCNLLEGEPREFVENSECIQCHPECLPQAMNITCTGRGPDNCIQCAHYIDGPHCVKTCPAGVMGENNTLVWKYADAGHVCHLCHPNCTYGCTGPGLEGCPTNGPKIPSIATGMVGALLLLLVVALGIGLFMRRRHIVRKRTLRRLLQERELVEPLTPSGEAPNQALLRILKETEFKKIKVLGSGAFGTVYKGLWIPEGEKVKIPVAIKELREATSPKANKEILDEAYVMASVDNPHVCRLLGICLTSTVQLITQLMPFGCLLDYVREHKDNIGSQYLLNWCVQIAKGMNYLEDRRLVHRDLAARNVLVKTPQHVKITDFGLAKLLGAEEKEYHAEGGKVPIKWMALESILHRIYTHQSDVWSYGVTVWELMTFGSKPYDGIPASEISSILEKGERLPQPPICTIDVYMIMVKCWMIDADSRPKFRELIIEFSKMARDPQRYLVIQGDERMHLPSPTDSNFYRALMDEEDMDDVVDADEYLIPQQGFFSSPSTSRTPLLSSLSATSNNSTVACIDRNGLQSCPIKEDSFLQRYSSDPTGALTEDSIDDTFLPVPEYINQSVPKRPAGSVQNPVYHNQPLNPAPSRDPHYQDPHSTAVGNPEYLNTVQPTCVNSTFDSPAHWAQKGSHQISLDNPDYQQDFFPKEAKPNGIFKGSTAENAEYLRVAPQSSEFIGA
Sequence of EGFR del19/C797S (P00533 with tags, fused parts or gaps DEL746-750/C797S): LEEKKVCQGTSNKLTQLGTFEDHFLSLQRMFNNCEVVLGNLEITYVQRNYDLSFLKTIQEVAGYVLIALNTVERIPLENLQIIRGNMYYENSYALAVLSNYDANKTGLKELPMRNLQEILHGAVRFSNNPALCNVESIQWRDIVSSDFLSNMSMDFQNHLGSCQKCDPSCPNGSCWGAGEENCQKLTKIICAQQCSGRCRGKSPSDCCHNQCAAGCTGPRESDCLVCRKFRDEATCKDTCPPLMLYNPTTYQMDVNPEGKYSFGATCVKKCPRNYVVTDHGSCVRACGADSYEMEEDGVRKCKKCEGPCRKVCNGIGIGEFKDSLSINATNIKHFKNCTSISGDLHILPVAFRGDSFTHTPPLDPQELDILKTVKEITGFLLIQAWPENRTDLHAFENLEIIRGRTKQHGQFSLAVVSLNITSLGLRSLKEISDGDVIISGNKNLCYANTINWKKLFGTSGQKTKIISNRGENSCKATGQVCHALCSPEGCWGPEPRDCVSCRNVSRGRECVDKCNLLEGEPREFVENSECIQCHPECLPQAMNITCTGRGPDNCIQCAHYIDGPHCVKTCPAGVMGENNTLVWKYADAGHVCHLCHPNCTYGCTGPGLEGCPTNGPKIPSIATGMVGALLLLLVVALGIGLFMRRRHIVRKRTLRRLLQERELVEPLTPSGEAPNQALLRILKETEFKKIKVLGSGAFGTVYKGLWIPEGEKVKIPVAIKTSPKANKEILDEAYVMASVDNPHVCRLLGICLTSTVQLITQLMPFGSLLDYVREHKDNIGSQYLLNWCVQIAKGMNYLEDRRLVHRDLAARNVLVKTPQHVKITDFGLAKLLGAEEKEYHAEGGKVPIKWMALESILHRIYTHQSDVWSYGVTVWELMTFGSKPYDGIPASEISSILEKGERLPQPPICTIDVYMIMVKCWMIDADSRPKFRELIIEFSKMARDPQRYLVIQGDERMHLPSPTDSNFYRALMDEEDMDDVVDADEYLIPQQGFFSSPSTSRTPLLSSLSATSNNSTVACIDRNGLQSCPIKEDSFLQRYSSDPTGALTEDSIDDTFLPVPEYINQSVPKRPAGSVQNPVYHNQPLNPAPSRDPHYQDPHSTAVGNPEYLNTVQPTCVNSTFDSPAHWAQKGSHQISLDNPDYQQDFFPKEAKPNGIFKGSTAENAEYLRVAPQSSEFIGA
Sequence of EGFR del19/T790M/C797S (P00533 with tags, fused parts or gaps DEL746-750/T790M/C797S): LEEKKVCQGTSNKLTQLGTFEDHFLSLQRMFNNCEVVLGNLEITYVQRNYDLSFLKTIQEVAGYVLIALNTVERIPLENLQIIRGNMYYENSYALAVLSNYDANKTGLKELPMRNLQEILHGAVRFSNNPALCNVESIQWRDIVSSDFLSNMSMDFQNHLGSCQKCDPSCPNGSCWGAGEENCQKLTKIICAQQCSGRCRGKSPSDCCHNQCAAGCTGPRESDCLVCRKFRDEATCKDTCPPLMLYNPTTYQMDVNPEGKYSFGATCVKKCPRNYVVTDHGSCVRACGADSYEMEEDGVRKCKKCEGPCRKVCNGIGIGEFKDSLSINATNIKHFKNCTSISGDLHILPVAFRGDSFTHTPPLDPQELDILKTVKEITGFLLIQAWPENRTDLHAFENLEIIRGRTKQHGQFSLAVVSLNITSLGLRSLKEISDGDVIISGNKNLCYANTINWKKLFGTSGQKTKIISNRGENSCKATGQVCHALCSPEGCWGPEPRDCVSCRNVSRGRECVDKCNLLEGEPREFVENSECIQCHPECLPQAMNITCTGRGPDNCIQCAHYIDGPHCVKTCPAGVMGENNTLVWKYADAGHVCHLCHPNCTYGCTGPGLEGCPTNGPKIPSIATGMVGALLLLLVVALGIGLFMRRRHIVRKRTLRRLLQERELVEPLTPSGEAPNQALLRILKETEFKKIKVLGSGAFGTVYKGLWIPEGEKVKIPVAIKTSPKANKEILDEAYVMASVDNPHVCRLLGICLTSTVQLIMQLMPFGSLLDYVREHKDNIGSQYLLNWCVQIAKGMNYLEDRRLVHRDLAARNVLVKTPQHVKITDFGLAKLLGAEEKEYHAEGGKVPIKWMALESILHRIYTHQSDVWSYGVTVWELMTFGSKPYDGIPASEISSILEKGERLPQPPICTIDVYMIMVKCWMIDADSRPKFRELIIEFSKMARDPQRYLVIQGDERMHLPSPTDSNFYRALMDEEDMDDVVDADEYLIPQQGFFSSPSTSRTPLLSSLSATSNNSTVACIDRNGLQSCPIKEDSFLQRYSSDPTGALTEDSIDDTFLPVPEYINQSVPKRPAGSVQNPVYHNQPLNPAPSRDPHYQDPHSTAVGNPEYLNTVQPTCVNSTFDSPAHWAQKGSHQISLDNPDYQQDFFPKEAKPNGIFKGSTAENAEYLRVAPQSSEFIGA

| SMILES | IC50 (EGFR del19/T790M/C797S; [1]) [nM] | IC50 (EGFR wildtype (WT); [2]) [nM] | IC50 (EGFR wildtype (WT); [3]) [nM] | IC50 (EGFR L858R/C797S; [4]) [nM] | IC50 (EGFR L858R/C797S; [5]) [nM] | IC50 (EGFR del19/C797S; [6]) [nM] | IC50 (EGFR del19/C797S; [7]) [nM] | IC50 (EGFR L858R/T790M/C797S; [8]) [nM] | IC50 (EGFR L858R/T790M/C797S; [9]) [nM] | IC50 (EGFR del19/T790M/C797S; [17]) [nM] | also measured |
| --- | --- | --- | --- | --- | --- | --- | --- | --- | --- | --- | --- |
| Cn1nc(-c2cnc(Nc3ccnc(-c4cnn(S(=O)(=O)C5CC5)c4)n3)cc2N[C@H]2CC[C@@H](C(C)(C)O)CC2)cc1C(C)(C)O [Example 298, 2-(3-(6-((2-(1-(Cyclopropylsulfonyl)-1H-pyrazol-4-yl)pyrimidin-4-yl)amino)-4-(((1s,4s)-4-(2-hydroxypropan-2-yl)cyclohexyl)amino)pyridin-3-yl)-1-methyl-1H-pyrazol-5-yl)propan-2-ol] | 1.8 | 504 | 1.6 | 1.7 | 1.1 | 0.8 | 1 | 1 | 0.3 | – | – |
| C[C@]1(O)CCCN(c2cc(Nc3ccnc(-c4cnn(S(=O)(=O)C5CC5)c4)n3)ncc2-c2ccn(C(F)F)n2)C1 [Example 107, (S)-1-(2-((2-(1-(Cyclopropylsulfonyl)-1H-pyrazol-4-yl)pyrimidin-4-yl)amino)-5-(1-(difluoromethyl)-1H-pyrazol-3-yl)pyridin-4-yl)-3-methylpiperidin-3-ol] | 2.7 | > 10000 | – | 346 | – | 113 | – | 4.6 | – | – | – |
| C[C@]1(O)CC[C@@H](Nc2cc(Nc3ccnc(-c4cnn(CC(F)(F)F)c4)n3)ncc2-c2ccn(CC(F)F)n2)CC1 [Example 344, (1s,4s)-4-((5-(1-(2,2-Difluoroethyl)-1H-pyrazol-3-yl)-2-((2-(1-(2,2,2-trifluoroethyl)-1H-pyrazol-4-yl)pyrimidin-4-yl)amino)pyridin-4-yl)amino)-1-methylcyclohexan-1-ol] | – | – | – | – | – | – | – | – | – | – | IC50 (EGFR del19/T790M/C797S; [10]): 0.4 nM; IC50 (EGFR wildtype (WT); [11]): 58.6 nM; IC50 (EGFR L858R/C797S; [12]): 0.2 nM; IC50 (EGFR del19/C797S; [13]): 29.5 nM; IC50 (EGFR L858R/T790M/C797S; [14]): 0.4 nM |
| C[C@]1(O)CC[C@@H](Nc2cc(Nc3ccnc(-c4cnn(S(=O)(=O)C5CC5)c4)n3)ncc2-n2cccn2)CC1 [Example 376, (1s,4s)-4-((2-((2-(1-(Cyclopropylsulfonyl)-1H-pyrazol-4-yl)pyrimidin-4-yl)amino)-5-(1H-pyrazol-1-yl)pyridin-4-yl)amino)-1-methylcyclohexan-1-ol] | – | – | – | – | – | – | – | – | – | – | IC50 (EGFR del19/T790M/C797S; [15]): 0.4 nM; IC50 (EGFR del19/T790M/C797S; [10]): 0.2 nM; IC50 (EGFR wildtype (WT); IC50 WT, 100 μM ATP): > 10000 nM; IC50 (EGFR wildtype (WT); [11]): 144 nM; IC50 (EGFR L858R/C797S; IC50 L858R/C797S, 100 μM ATP): 126 nM; IC50 (EGFR L858R/C797S; [12]): 11 nM; IC50 (EGFR del19/C797S; IC50 del19/C797S, 100 μM ATP): 8 nM; IC50 (EGFR del19/C797S; [13]): 6 nM; IC50 (EGFR L858R/T790M/C797S; [16]): 0.9 nM; IC50 (EGFR L858R/T790M/C797S; [14]): 0.1 nM |
| CN[C@H]1CC[C@@H](Nc2cc(Nc3ccnc(-c4cnn(S(=O)(=O)C5CC5)c4)n3)ncc2-c2ccn(C)n2)CC1 [Example 88, N^2-(2-(1-(Cyclopropylsulfonyl)-1H-pyrazol-4-yl)pyrimidin-4-yl)-5-(1-methyl-1H-pyrazol-3-yl)-N^4-((1s,4s)-4-(methylamino)cyclohexyl)pyridine-2,4-diamine] | – | – | 3.2 | – | 0.3 | – | 0.5 | – | 0.1 | 0.2 | IC50 (EGFR del19/T790M/C797S; read-out: IC50 del19/T790M/C797S (nM) 100 μM ATP, 100 μM ATP): 0.3 nM; IC50 (EGFR wildtype (WT); read-out: IC50 WT (nM) 100 μM ATP, 100 μM ATP): 1980 nM; IC50 (EGFR L858R/C797S; read-out: IC50 L858R/C797S (nM) 100 μM ATP, 100 μM ATP): 3.1 nM; IC50 (EGFR del19/C797S; read-out: IC50 del19/C797S (nM) 100 μM ATP, 100 μM ATP): 1 nM; IC50 (EGFR L858R/T790M/C797S; read-out: IC50 L858R/T790M/C797S (nM) 100 μM ATP, 100 μM ATP): 0.3 nM |
| COc1ncc(-c2nccc(Nc3cc(N[C@H]4CC[C@@](C)(O)CC4)c(-c4ccn(C(F)F)n4)cn3)n2)cn1 [Example 312, (1s,4s)-4-((5-(1-(Difluoromethyl)-1H-pyrazol-3-yl)-2-((2′-methoxy-[2,5′-bipyrimidin]-4-yl)amino)pyridin-4-yl)amino)-1-methylcyclohexan-1-ol] | 2.4 | > 10000 | – | > 10000 | – | 353 | – | 6.6 | 1.3 | 1.3 | – |
| CC1(O)CCC(Nc2cc(Nc3ccnc(N4CC(CO)C(C)(C)C4)n3)ncc2-c2ccn(C(F)F)n2)CC1 (stereo not shown) [Example 347, (1s,4s)-4-((5-(1-(Difluoromethyl)-1H-pyrazol-3-yl)-2-((2-(4-(hydroxymethyl)-3,3-dimethylpyrrolidin-1-yl)pyrimidin-4-yl)amino)pyridin-4-yl)amino)-1-methylcyclohexan-1-ol] | – | – | – | – | – | – | – | – | – | – | IC50 (EGFR del19/T790M/C797S; [15]): 3.1 nM; IC50 (EGFR del19/T790M/C797S; [10]): 1.9 nM; IC50 (EGFR wildtype (WT); IC50 WT, 100 μM ATP): > 10000 nM; IC50 (EGFR wildtype (WT); [11]): 400 nM; IC50 (EGFR L858R/C797S; IC50 L858R/C797S, 100 μM ATP): 449 nM; IC50 (EGFR L858R/C797S; [12]): 48.2 nM; IC50 (EGFR del19/C797S; IC50 del19/C797S, 100 μM ATP): 329 nM; IC50 (EGFR del19/C797S; [13]): 99 nM; IC50 (EGFR L858R/T790M/C797S; [16]): 1.9 nM; IC50 (EGFR L858R/T790M/C797S; [14]): 0.7 nM |
| C[C@]1(O)CC[C@@H](Nc2cc(Nc3ccnc(-c4cnn(CCF)c4)n3)ncc2-c2ccn(C(F)F)n2)CC1 [Example 145, (1s,4s)-4-((5-(1-(Difluoromethyl)-1H-pyrazol-3-yl)-2-((2-(1-(2-fluoroethyl)-1H-pyrazol-4-yl)pyrimidin-4-yl)amino)pyridin-4-yl)amino)-1-methylcyclohexan-1-ol] | – | – | 199 | – | 7.2 | – | 23 | – | 0.5 | 0.6 | – |
| CN(C)C[C@H]1C[C@H](CNc2cc(Nc3ccnc(-c4cnn(S(=O)(=O)C5CC5)c4)n3)ncc2-c2ccn(CC(F)F)n2)C1 [Example 249, N^2-(2-(1-(Cyclopropylsulfonyl)-1H-pyrazol-4-yl)pyrimidin-4-yl)-5-(1-(2,2-difluoroethyl)-1H-pyrazol-3-yl)-N^4-(((1r,3r)-3-((dimethylamino)methyl)cyclobutyl)methyl)pyridine-2,4-diamine] | – | – | 7.5 | – | 6.1 | – | 11.5 | – | 0.1 | 0.4 | – |
| CN(C)C(=O)C[C@H]1CC[C@@H](Nc2cc(Nc3ccnc(-c4cnn(S(=O)(=O)C5CC5)c4)n3)ncc2-c2ccn(C)n2)CC1 [Example 236, 2-((1s,4s)-4-((2-((2-(1-(Cyclopropylsulfonyl)-1H-pyrazol-4-yl)pyrimidin-4-yl)amino)-5-(1-methyl-1H-pyrazol-3-yl)pyridin-4-yl)amino)cyclohexyl)-N,N-dimethylacetamide] | 0.3 | 565 | 0.5 | 2 | 0.1 | 0.3 | 0.2 | 0.3 | 0.2 | 0.3 | – |
| Cc1cc(-c2cnc(Nc3ccnc(-c4cnn(S(=O)(=O)C5CC5)c4)n3)cc2N[C@H]2CC[C@@H](C(C)(C)O)CC2)nn1C [Example 281, 2-((1s,4s)-4-((2-((2-(1-(Cyclopropylsulfonyl)-1H-pyrazol-4-yl)pyrimidin-4-yl)amino)-5-(1,5-dimethyl-1H-pyrazol-3-yl)pyridin-4-yl)amino)cyclohexyl)propan-2-ol] | 2.8 | 806 | 2.9 | 40.4 | 2.8 | 1.1 | 0.9 | 2.3 | 0.6 | 1.8 | – |
| Cn1ccc(-c2cnc(Nc3ccnc(-c4cnn(S(=O)(=O)C5CC5)c4)n3)cc2N[C@H]2CC[C@H](CO)OC2)n1 [Example 227, ((2R,5S)-5-((2-((2-(1-(Cyclopropylsulfonyl)-1H-pyrazol-4-yl)pyrimidin-4-yl)amino)-5-(1-methyl-1H-pyrazol-3-yl)pyridin-4-yl)amino)tetrahydro-2H-pyran-2-yl)methanol] | 2.1 | > 10000 | – | 962 | – | 44.4 | – | 6.7 | – | – | – |
